9 compounds from PubChem BioAssay (NCI) can be followed below.

Structures are written as SMILES.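 The compound was tested at five concentrations on cells cultured in 96-well plates, with a 48-hour exposure period. Abbreviation: GI50, concentration required for 50% inhibition of growth. Definition used: TGI = concentration required for complete inhibition of growth.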 A value given as a limit tells only on which side of the number the result lay.

Some test systems named below: SN12C renal; COLO 205 colon; NCI-H23 lung; SK-MEL-28 melanoma; SK-MEL-5 melanoma; U251 CNS; KM12 colon; A549 NSCLC; 786-0 renal; SF-539 CNS.
Holding throughout (assay): inhibition of tumour cell growth, NCI panel, 48 h

As for `C=C1C(=O)O[C@H]2[C@H]1CC/C(COC(=O)NCc1ccc(Cn3c(=O)sn(CCCCl)c3=O)cc1)=C\CC[C@@]1(C)O[C@@H]21`, the GI50 in the test with SN12C renal was 1.36 µM; in the test on COLO 205 colon, 2.04 µM; with NCI-H23 lung, 2.33 µM; with SK-MEL-28 melanoma, 1.69 µM; in the test on SK-MEL-5 melanoma, 3.72 µM; in the test on U251 CNS, 5.05 µM. Moreover, the GI50 was 4.92 µM in the test on KM12 colon, 19.2 µM in the test with A549 NSCLC, 1.48 µM in the test with 786-0 renal and 1.74 µM with SF-539 CNS. In addition, the TGI with SN12C renal worked out at 3.15 µM; in the test on COLO 205 colon it was 3.92 µM; in the test on NCI-H23 lung, 5.36 µM; in the test with SK-MEL-28 melanoma, 3.16 µM; in the test with SK-MEL-5 melanoma, 14.1 µM; in the test with U251 CNS it was 17.2 µM. The TGI was determined as 17.5 µM with KM12 colon, 34.6 µM in the test on A549 NSCLC, 2.9 µM in the test with 786-0 renal and 3.3 µM with SF-539 CNS.

With `O=C1C=C(Br)C(=O)C12CCc1ccccc12` (stereo not given), the TGI with SN12C renal was found to be 35 µM; with COLO 205 colon it was 11.2 µM; with NCI-H23 lung it was 44.6 µM; in the test on SK-MEL-28 melanoma, 27.2 µM; with SK-MEL-5 melanoma, 34.6 µM; with U251 CNS it was 41.8 µM. Moreover, the TGI with KM12 colon was determined as 44.6 µM; in the test with A549 NSCLC it was 55.4 µM; with 786-0 renal, 42.3 µM; in the test on SF-539 CNS, 35.6 µM.

In the case of `COc1ccc(C(N)=O)cc1N=NN(C)C`, the TGI with SN12C renal, in the test with COLO 205 colon, with NCI-H23 lung, in the test with SK-MEL-28 melanoma, with SK-MEL-5 melanoma and with U251 CNS was greater than 100 µM in each case. Moreover, the TGI with KM12 colon, in the test on A549 NSCLC, in the test with 786-0 renal and in the test with SF-539 CNS was greater than 100 µM throughout.

On to `Cc1cc(C)c(C[N+](C)(C)C)c(C)c1C`, for which the GI50 is 0.212 µM in the test with SN12C renal; 0.236 µM in the test on COLO 205 colon; 0.395 µM in the test on NCI-H23 lung; 0.365 µM in the test on SK-MEL-28 melanoma; 0.209 µM with SK-MEL-5 melanoma; 0.307 µM with U251 CNS. Besides, the GI50 with KM12 colon was 0.33 µM; with A549 NSCLC, 0.281 µM; with 786-0 renal, 0.323 µM; in the test with SF-539 CNS, 0.292 µM. Besides, the TGI in the test on SN12C renal came out at 23.4 µM; in the test with COLO 205 colon, 1.85 µM; with NCI-H23 lung, 12.3 µM; in the test with SK-MEL-28 melanoma it was 23.5 µM; in the test on SK-MEL-5 melanoma, 2.82 µM; with U251 CNS, 34.7 µM. In addition, the TGI in the test on KM12 colon came out at 24.2 µM; in the test with A549 NSCLC, 39.1 µM; in the test with 786-0 renal it was 13.2 µM; in the test on SF-539 CNS, 4.86 µM.

`COC1OC(CO)C(O)C(O)C1Br` (stereo not given): the TGI with SN12C renal, in the test on COLO 205 colon, with NCI-H23 lung, in the test on SK-MEL-28 melanoma, in the test with SK-MEL-5 melanoma and with U251 CNS was greater than 100 µM in each case. Besides, the TGI in the test with KM12 colon, with A549 NSCLC, with 786-0 renal and with SF-539 CNS was greater than 100 µM each time.

Turning to `CC(C)c1ccc(/C(C(=O)O)=C(\O)C(=O)O)cc1`, the TGI in the test with SN12C renal, in the test on COLO 205 colon, in the test with NCI-H23 lung, with SK-MEL-28 melanoma, in the test with SK-MEL-5 melanoma and in the test on U251 CNS was greater than 100 µM each time. Moreover, the TGI in the test with KM12 colon, in the test with A549 NSCLC, with 786-0 renal and in the test on SF-539 CNS was greater than 100 µM each time.

For the compound `C[C@]1(CO)[C@H]2CC[C@@]34C=C[C@@](CO)(CC[C@H]3[C@]2(C)CC[C@H]1O)C4`, the TGI is greater than 100 µM in the test with SN12C renal; greater than 100 µM in the test with COLO 205 colon; greater than 100 µM in the test with NCI-H23 lung; greater than 100 µM with SK-MEL-28 melanoma; 32.3 µM with SK-MEL-5 melanoma; greater than 100 µM in the test on U251 CNS. The TGI in the test with KM12 colon, in the test on A549 NSCLC, in the test on 786-0 renal and with SF-539 CNS was greater than 100 µM throughout.

On to `CC(C)(C)NCc1cc(C(C)(C)C)cc(-c2ccc(Cl)cc2)c1O`, for which the TGI in the test on SN12C renal came out at 30.3 µM; in the test on COLO 205 colon it was 23.8 µM; in the test on NCI-H23 lung, 29.4 µM; with SK-MEL-28 melanoma, 28.2 µM; in the test with SK-MEL-5 melanoma it was 29.7 µM; in the test with U251 CNS, 24.1 µM. In addition, the TGI with KM12 colon was determined as 27.1 µM; with A549 NSCLC, 32.4 µM; in the test with 786-0 renal it was 26.8 µM; in the test on SF-539 CNS it was 27.9 µM.

Regarding `Cc1nc2sc(C(=O)Nc3cccc4ccccc34)c(N)c2cc1C(=O)c1ccccc1`, the GI50 is 2.98 µM in the test on SN12C renal; 1.65 µM with COLO 205 colon; 3.55 µM with NCI-H23 lung; 4.95 µM in the test with SK-MEL-28 melanoma; 1.92 µM with SK-MEL-5 melanoma; 1.97 µM in the test on U251 CNS. Besides, the GI50 in the test on KM12 colon is 1.86 µM; in the test on A549 NSCLC it was 0.403 µM; with 786-0 renal, 2.38 µM; in the test with SF-539 CNS, 1.06 µM. The TGI was greater than 50 µM in the test with SN12C renal; greater than 50 µM with COLO 205 colon; greater than 50 µM in the test on NCI-H23 lung; greater than 50 µM in the test with SK-MEL-28 melanoma; 12.4 µM in the test with SK-MEL-5 melanoma; greater than 50 µM with U251 CNS. Also, the TGI in the test on KM12 colon was greater than 50 µM; with A549 NSCLC, greater than 50 µM; in the test on 786-0 renal, greater than 50 µM; in the test with SF-539 CNS it was 2.71 µM.
